pIC50: −log10 of the molar value. Like-named read-outs stand apart in the source and are kept apart here.
Legend:
[1] = tested on: invertebrate L-quisqualate sub-type L-glutamate receptor and its ion channel; experiment: locust isolated retractor unguis nerve-muscle preparation, twitch amplitude on electrical stimulation; format: cell-based, Schistocerca gregaria; conditions: for pIC50: locust retractor unguis muscle, electrically stimulated
Procedure: The compounds were assayed for biological activity on the isolated, retractor unguis nerve-muscle preparation of the locust Schistocerca gregaria (Usherwood, P.N.R and Machili, P. (1968) J. Exp. Biol., 49: 341.). Isolated muscle preparations were bathed continuously in standard locust saline in a bath of volume 250 μl. Twitch tension recordings of the muscle were made to electrical stimulation of its motor innervation supramaximal voltage, frequency 0.1 Hz).
The locust isolated retractor unguis nerve-muscle is a preparation with well characterised muscle receptors belonging to the quisqualate-sensitiveclass (Boden, P. et al., (1986) Brain Res., 385: 205.). This preparation has previously been employed to identify antogonists of excitatory amino acid receptors, (e.g. Bateman, A. et al., (1985) Brain Res., 339: 237 and Budd, T. et al., (1988) Brain Res., 448: 30.). Excitatory amino acid receptors are also believed to be of considerable importance in the mammal and for therapeutic applications.
The potency of this monoacylated spermine as an antagonist of the complex formed by the invertebrate L-quisqualate sub-type L-glutamate receptor and its ion channel was assayed using the electrically stimulated retractor unguis muscle of the locust (Schistocerca gregaria). Twitch amplitude was reduced ([…]) from control (100%) levels at the following concentrations: […]

quizqualate receptor = experiment: rat cerebral cortex slice (wedge, grease-gap), AMPA-induced depolarisation response; format: cell-based, Wistar rats; conditions: rat brain slice
Text: (§1) Coronal slices of cerebral cortex were cut with a Vibratome from the brains of freshly killed Wistar rats. Wedges of tissue were cut from either side of the mid-line to include the cortex and corpus callosum. The wedges were mounted in a grease-gap apparatus such that the cortex protruded into one compartment and the corpus callosum into the other compartment of a two-compartment bath, (Harrison N. L. & Simmonds M. A. (1985). Br. J. Pharmacol 84: 381-391.). Each compartment could be separately perfused with Krebs bicarbonate medium pre-gassed with 95% 02 /5% CO2 at room temperature. The volume of each compartment was 1.8 ml and the perfusion rate was 2 ml/min. The compartment containing the cortical part of the wedge was also gassed directly so that drugs could be injected into the bath with the perfusion pump stopped. This variant on the published method was adopted to minimise the amount of drug required. The potential difference between the two compartments was recorded continously via Ag/AgCl electrodes. […]
(§2) The potency of this monoacylated spermine was tested as an antagonist of NMDA- and AMPA- induced response in a rat brain slice model. Electrophysiologically recorded depolarisation responses were reduced from control levels (% inhibition) at the following concentrations: […]

NMDA receptor = experiment: rat cerebral cortex slice (wedge, grease-gap), NMDA-induced depolarisation response; format: cell-based, Wistar rats; conditions: rat brain slice, Mg2+ omitted
Text: as §1, §2

[2] = approximate, read-out: concentration at which an approximately 50% reduction of twitch amplitude was obtained
[3] = read-out: IC50 (reduction of twitch amplitude)

NCCCNCCCCNCCCNC(=O)CCc1ccccc1O [Example 4, N-(2-Hydroxyphenylpropanoyl)-spermine]
pIC50 [1, 2]: ~4.30

NCCCNCCCCNCCCNC(=O)Cc1ccc(O)c(F)c1 [Example 14, N-(3-Fluoro-4-hydroxyphenylacetyl)-spermine]
pIC50 [1, 2]: ~3.30

NCCCNCCCCNCCCNC(=O)C=Cc1cccc(O)c1 [Example 13, N-(3-Hydroxycinnamoyl)-spermine]
reduction of twitch amplitude from control levels ([1]; 9.2×10^-7 M, 0.92 µM): approximately 25%

NCCCNCCCCNCCCNC(=O)C=Cc1ccc(O)cc1 [Example 6, N-(4-Hydroxycinnamoyl)-spermine]
inhibition of twitch ([1]; 10^-5 M): 70%
inhibition of twitch ([1]; 10^-6 M): 56%
inhibition of twitch ([1]; 10^-7 M): 33%
inhibition of twitch ([1]; 10^-8 M): 24%
inhibition of twitch ([1]; 10^-9 M): 18%
inhibition of twitch ([1]; 10^-10 M): 4%
pIC50 [1, 3]: 4.22

COc1ccc(CC(=O)NCCCNCCCNCCCN)cc1 [Example 18, N-(4-Methoxyphenylacetyl)-N',N"-bis(3-aminopropyl)-1,3-propanediamine]
pIC50 [1, 2]: ~3.05

NCCCNCCCCNCCCNC(=O)Cc1cccc(O)c1 [Example 2, N-(3-Hydroxyphenylacetyl)-spermine]
inhibition of twitch ([1]; 3 × 10^-7 M): 35%
inhibition of twitch ([1]; 3 × 10^-8 M): 30%

NCCCNCCCNCCCNC(=O)Cc1ccccc1O [Example 19, N-(2-Hydroxyphenylacetyl)-N',N"-bis(3-aminopropyl)-1,3-propanediamine]
pIC50 [1, 2]: ~3.05

NCCCNCCCCNCCCNC(=O)Cc1ccccc1O [Example 1, N-(2-Hydroxyphenylacetyl)-spermine]
inhibition of twitch ([1]; 1.5 × 10^-4 M): 85%
inhibition of twitch ([1]; 1.5 × 10^-5 M): 30%
inhibition of twitch ([1]; 3 × 10^-4 M): 90%
inhibition of twitch ([1]; 3 × 10^-5 M): 30%
inhibition of twitch ([1]; 3 × 10^-6 M): 20%
inhibition of twitch ([1]; 3 × 10^-7 M): 15%
inhibition of twitch ([1]; 3 × 10^-8 M): 10%
pIC50 [1, 3]: 4.21

COc1ccc(CC(=O)NCCCNCCCCNCCCN)cc1 [Example 16, N-(4-Methoxyphenylacetyl)-spermine]
pIC50 [1, 2]: ~3.30

NCCCNCCCNCCCNC(=O)Cc1cccc(O)c1 [Example 20, N-(3-Hydroxyphenylacetyl)-N',N"-bis(3-aminopropyl)-1,3-propanediamine]
reduction of twitch amplitude from control levels ([1]; 1.04×10^-4 M, 104 µM): approximately 60%

NCCCNCCCCNCCCNC(=O)Cc1ccc(O)c(O)c1 [Example 8, N-(3,4-Dihydroxyphenylacetyl)-spermine]
pIC50 [1, 2]: ~3.30

NCCCNCCCCNCCCNC(=O)c1cccc(O)c1 [Example 11, N-(3-Hydroxybenzoyl)-spermine]
reduction of twitch amplitude from control levels ([1]; 1.02×10^-5 M, 10.2 µM): approximately 40%

COc1ccccc1CC(=O)NCCCNCCCNCCCN [Example 17, N-(2-Methoxyphenylacetyl)-N',N"-bis(3-aminopropyl)-1,3-propanediamine]
pIC50 [1, 2]: ~3.05

NCCCNCCCCNCCCNC(=O)Cc1ccc(O)cc1 [Example 3, N-(4-Hydroxyphenylacetyl)-spermine]
% inhibition of AMPA-induced depolarisation response (quizqualate receptor; 10^-5 M): 22%
% inhibition of AMPA-induced depolarisation response (quizqualate receptor; 10^-6 M): 0%
% inhibition of NMDA-induced depolarisation response (NMDA receptor; 10^-5 M): 35%
% inhibition of NMDA-induced depolarisation response (NMDA receptor; 10^-6 M): 29%
inhibition of twitch ([1]; 2.95 × 10^-5 M): 74%
inhibition of twitch ([1]; 4.43 × 10^-5 M): 91%
inhibition of twitch ([1]; 5.9 × 10^-5 M): 96%
inhibition of twitch ([1]; 5.9 × 10^-6 M): 25%
inhibition of twitch ([1]; 5.9 × 10^-7 M): 9%
pIC50 [1, 3]: 5.06

NCCCNCCCCNCCCNC(=O)c1ccc(O)cc1 [Example 12, N-(4-Hydroxybenzoyl)-spermine]
pIC50 [1, 2]: ~4.30

NCCCNCCCCNCCCNC(=O)CCc1cccc(O)c1 [Example 5, N-(3-Hydroxyphenylpropanoyl)-spermine]
inhibition of twitch ([1]; 1.08 × 10^-6 M): 15%
inhibition of twitch ([1]; 1.08 × 10^-7 M): 10%

NCCCNCCCCNCCCNC(=O)Cc1ccc(O)cc1O [Example 7, N-(2,4-Dihydroxyphenylacetyl)-spermine]
pIC50 [1, 2]: ~4.30

NCCCNCCCCNCCCNC(=O)c1ccccc1O [Example 10]
reduction of twitch amplitude from control level ([1]; 1.09×10^-5 M, 10.9 µM): approximately 25%

NCCCNCCCCNCCCNC(=O)Cc1cc(O)cc(O)c1 [Example 9, N-(3,5-Dihydroxyphenylacetyl)-spermine]
inhibition of twitch ([1]; 1 07 × 10^-6 M): 25%
inhibition of twitch ([1]; 1.07 × 10^-5 M): 45%

NCCCNCCCNCCCNC(=O)Cc1ccc(O)cc1 [Example 21, N-(4-Hydroxyphenylacetyl)-N',N"-bis(3-aminopropyl)-1,3-propanediamine]
reduction of twitch amplitude from control levels ([1]; 1×10^-4 M, 100 µM): approximately 30%
pIC50 [1, 2]: ~3.05

COc1ccccc1CC(=O)NCCCNCCCCNCCCN [Example 15, N-(2-Methoxyphenylacetyl)-spermine]
pIC50 [1, 2]: ~3.30

From US5218000A, “Therapeutic polyamine-amides” (priority 1988, dated 1993)
